From ChEMBL document CHEMBL5352381, “Design and development of a novel series of oral bivalent BET inhibitors with potent anticancer activities” (Eur J Med Chem, 2022)
The source made the active and inactive calls. The calls are words filed in the database; no cut-off is given here.

Experiments:
[1] = Half life in CD-1 mouse at 10 mg/kg, po; type: ADME, organism-based; settings: in vivo
[2] = Tmax in CD-1 mouse at 10 mg/kg, po; type: ADME, organism-based; settings: in vivo
[3] = Cmax in CD-1 mouse at 10 mg/kg, po; type: ADME, organism-based; design: dose 10 mg/kg, route po; settings: in vivo
[4] = AUClast in CD-1 mouse at 10 mg/kg, po; type: ADME, organism-based; design: dose 10 mg/kg, route po; settings: in vivo
[5] = Observed AUC infinity in CD-1 mouse at 10 mg/kg, po; type: ADME, organism-based; design: dose 10 mg/kg, route po; settings: in vivo
[6] = Observed MRT infinity in CD-1 mouse at 10 mg/kg, po; type: ADME, organism-based; settings: in vivo
[7] = test system: MM1.S; test: Antitumor activity against human MM1.S cells xenografted in BALB/c nude mouse assessed growth inhibition treated at 1.5 mg/kg, po qd for 10 days adjusted to qod from day 11 to 21 due to body weight loss relative to control; type: functional; settings: 504 h, time 21 day, read-out: GI
[8] = test system: MM1.S; test: Antitumor activity against human MM1.S cells xenografted in BALB/c nude mouse assessed growth inhibition treated at 0.5 mg/kg, po qd for 21 days relative to control; type: functional; settings: 504 h, time 21 day, read-out: GI
[9] = Toxicity in BALB/c mouse xenografted with human MM1.S assessed body weight loss treated at 1.5 mg/kg, po qd for 10 days; type: organism-based; settings: in vivo, 240 h, time 10 day
[10] = test system: MV4-11; test: Antiproliferative activity against human MV4-11 cells; type: functional, cell-based
[11] = test system: Ty-82; test: Antiproliferative activity against human Ty-82 cells incubated for 72 hrs by sulforhodamine B based cell counting kit-8 assay; type: functional; settings: TY82, 72 h
[12] = test system: MM1.S; test: Antiproliferative activity against human MM1.S cells incubated for 72 hrs by sulforhodamine B based cell counting kit-8 assay; type: functional
[13] = Metabolic stability in human liver microsomes assessed as half life; type: ADME, Microsome
[14] = Metabolic stability in dog liver microsomes assessed as half life; type: ADME, Canis lupus familiaris, Microsome
[15] = Metabolic stability in mouse liver microsomes assessed as half life; type: ADME, Microsome
[16] = Metabolic stability in human liver microsomes assessed as clearance; type: ADME, Microsome; settings: read-out: CLH
[17] = Metabolic stability in dog liver microsomes assessed as clearance; type: ADME, Canis lupus familiaris, Microsome; settings: read-out: CLH
[18] = Metabolic stability in mouse liver microsomes assessed as clearance; type: ADME, Microsome; settings: read-out: CLH
[19] = test system: Ty-82; test: Antitumor activity against human Ty-82 cells xenografted in BALB/c nude mouse assessed tumor growth inhibition treated at 0.5 mg/kg, po qd for 21 days relative to control; type: functional; settings: TY82, 504 h, time 21 day, read-out: TGI
[20] = Toxicity in BALB/c mouse xenografted with human Ty-82 assessed as body weight loss treated at 0.25 to 0.5 mg/kg, po qd for 21 days; type: organism-based; settings: in vivo, 504 h, dose 0.25-0.5 mg/kg, time 21 day
[21] = Toxicity in BALB/c mouse xenografted with human Ty-82 assessed as death treated at 0.25 to 0.5 mg/kg, po qd for 21 days; type: organism-based; settings: in vivo, 504 h, dose 0.25-0.5 mg/kg, time 21 day
[22] = test system: Ty-82; test: Induction of apoptosis in human Ty-82 cells assessed as reduction of IDO1 mRNA level at 0.1 to 10 nM for 24 hrs by […]; type: functional, cell-based; settings: dose 0.1-10 nM
[23] = test system: Ty-82; test: Induction of apoptosis in human Ty-82 cells assessed as reduction of c-Myc mRNA level at 0.1 to 10 nM for 24 hrs by […]; type: functional, cell-based; settings: dose 0.1-10 nM
[24] = test system: Ty-82; test: Induction of apoptosis in human Ty-82 cells for 48 hrs by annexin V-FITC based flow cytometric analysis; type: functional, cell-based; settings: dose 0.1-10 nM
[25] = test system: CAPAN-1; test: Induction of apoptosis in human CAPAN-1 cells for 48 hrs by annexin V-FITC based flow cytometric analysis; type: functional, cell-based; settings: dose 0.1-10 nM
[26] = test system: Ty-82; test: Induction of apoptosis in human Ty-82 cells assessed as increase in caspase 9 at 0.1 to 10 nM for 48 hrs […]; type: functional, cell-based; settings: dose 0.1-10 nM
[27] = test system: CAPAN-1; test: Induction of apoptosis in human CAPAN-1 cells assessed as increase in caspase 9 at 0.1 to 10 nM for 48 hrs […]; type: functional, cell-based; settings: dose 0.1-10 nM
[28] = test system: Ty-82; test: Induction of apoptosis in human Ty-82 cells assessed as increase in caspase 3 at 0.1 to 10 nM for 48 hrs […]; type: functional, cell-based; settings: dose 0.1-10 nM
[29] = test system: CAPAN-1; test: Induction of apoptosis in human CAPAN-1 cells assessed as increase in caspase 3 at 0.1 to 10 nM for 48 hrs […]; type: functional, cell-based; settings: dose 0.1-10 nM
[30] = test system: Ty-82; test: Induction of apoptosis in human Ty-82 cells assessed as increase in caspase 7 at 0.1 to 10 nM for 48 hrs […]; type: functional, cell-based; settings: dose 0.1-10 nM
[31] = test system: CAPAN-1; test: Induction of apoptosis in human CAPAN-1 cells assessed as increase in caspase 7 at 0.1 to 10 nM for 48 hrs […]; type: functional, cell-based; settings: dose 0.1-10 nM
[32] = test system: Ty-82; test: Induction of apoptosis in human Ty-82 cells assessed as increase in cleaved PARP at 0.1 to 10 nM for 48 hrs […]; type: functional, cell-based; settings: dose 0.1-10 nM
[33] = test system: CAPAN-1; test: Induction of apoptosis in human CAPAN-1 cells assessed as increased cleaved PARP at 0.1 to 10 nM for 48 hrs […]; type: functional, cell-based; settings: dose 0.1-10 nM
[34] = test system: MV4-11; test: Antitumor activity against human MV4-11 cells xenografted in BALB/c mouse assessed as growth inhibition at 0.6 mg/kg, po qd 21 days relative to control; type: functional; settings: MV4-11, 504 h, time 21 day, read-out: GI
[35] = Toxicity in BALB/c mouse xenografted with human MV4-11 cells assessed as body weight loss at 0.6 mg/kg, po qd 21 days; type: organism-based; settings: in vivo, 504 h, time 21 day
[36] = target: Bromodomain-containing protein 4 (Homo sapiens, UniProt O60885); test: Inhibition of full length BRD4 (unknown origin) transfected in HEK293 cells incubated for 20 hrs measured by NanoBRET BRD4/Histone H3.3 interaction assay kit; type: cell-based
[37] = test system: MM1.S; test: Antitumor activity against human MM1.S cells xenografted in BALB/c nude mouse assessed growth inhibition treated at 3 mg/kg, po qd for 10 days followed by dose adjustment to 1.5 mg/kg from day 11 to 21 due to body weight loss relative to control; type: functional; settings: dose 1.5-3 mg/kg, time 21 day, at 1.5 to 3 mg/kg
[38] = Toxicity in BALB/c mouse xenografted with human MM1.S assessed body weight loss treated at 3 mg/kg, po qd for 10 days; type: organism-based; settings: in vivo, 240 h, time 10 day

In the case of Cc1ccc(-n2nc(C(=O)N3C[C@H](C)N(C(=O)c4nc(-c5ccc6c(c5)N(C5CCCC5)[C@H](C)C(=O)N6C)n(-c5ccc(C)cc5)n4)C[C@H]3C)nc2-c2ccc3c(c2)N(C2CCCC2)[C@H](C)C(=O)N3C)cc1, the half-life [1] is reported as 11.4 min, the Tmax [2] is reported as 2.33 h and the Cmax [3] is reported as 1340 ng/mL. The AUC(0-t) [4] was 4570 ng·h/mL, the AUC(0-inf) [5] was 4620 ng·h/mL and the MRT [6] was 3.82 h. The inhibition in vivo at 1.5 mg/kg [7] was 91.5%, the inhibition in vivo at 0.5 mg/kg [8] was 66.5% and the Activity [9] was “Toxic”.
For Cc1sc2c(c1C)C(c1ccc(Cl)cc1)=NC(CC(=O)OC(C)(C)C)c1nnc(C)n1-2 (centres undefined), the IC50 [10] was 72.2 nM.
With Cc1ccc(-n2nc(C(=O)N3C[C@H](C)N(C(=O)c4nc(-c5ccc6c(c5)N(C5CCC5)[C@H](C)C(=O)N6C)n(-c5ccc(C)cc5)n4)C[C@H]3C)nc2-c2ccc3c(c2)N(C2CCC2)[C@H](C)C(=O)N3C)cc1 the IC50 [11] was 0.05 nM, the IC50 [12] was 0.04 nM and the half-life [13] was 2920 min. It also gave a half-life [14] of 2080 min, a half-life [15] of 569 min and a microsomal CLint [16] of 0.5 µL/min/mg. The microsomal CLint [17] was 0.7 µL/min/mg, the microsomal CLint [18] was 2.4 µL/min/mg and the inhibition in vivo at 0.5 mg/kg [19] was 61%. For the same compound, the Activity [20] was “Toxic” and the Activity [21] was “Non-Toxic”.
Work on Cc1sc2c(c1C)C(c1ccc(Cl)cc1)=N[C@@H](CC(=O)NCCOCCOCCOCCOCCOCCOCCOCCNC(=O)C[C@@H]1N=C(c3ccc(Cl)cc3)c3c(sc(C)c3C)-n3c(C)nnc31)c1nnc(C)n1-2 yielded an IC50 [10] of 0.17 nM.
Compound C[C@@H]1CN(C(=O)c2nc(-c3ccc4c(c3)N(C3CCC3)[C@H](C)C(=O)N4C)n(-c3cccc(Cl)c3)n2)[C@@H](C)CN1C(=O)c1nc(-c2ccc3c(c2)N(C2CCC2)[C@H](C)C(=O)N3C)n(-c2cccc(Cl)c2)n1 has an IC50 [11] of 0.05 nM, an IC50 [12] of 0.07 nM and a half-life [13] of 232 min. It also gave a half-life [14] of 879 min, a half-life [15] of 223 min and a microsomal CLint [16] of 6 µL/min/mg. For the same compound, the microsomal CLint [17] was 1.6 µL/min/mg, the microsomal CLint [18] was 6.2 µL/min/mg and the inhibition in vivo at 0.5 mg/kg [19] was 73.5%. For the same compound, the Activity [20] was “Toxic”, the Activity [21] was “Non-Toxic” and the Activity [22] was “Active”. The Activity [23] was “Active”, the Activity [24] was “Dose-Dependent Effect” and the Activity [25] was “Dose-Dependent Effect”. The Activity [26] was “Active”, the Activity [27] was “Active” and the Activity [28] was “Active”. The Activity [29] was “Active”, the Activity [30] was “Active” and the Activity [31] was “Active”. The Activity [32] was “Active”, the Activity [33] was “Active” and the inhibition in vivo at 0.6 mg/kg [34] was 88.9%. For the same compound, the Activity [35] was “Toxic”.
With CCS(=O)(=O)Nc1ccc(Oc2ccc(F)cc2F)c(-c2cn(C)c(=O)c3[nH]ccc23)c1 [MIVEBRESIB] the inhibition in vivo at 0.5 mg/kg [19] was 67.6%, the Activity [20] was “Toxic” and the Activity [21] was “Non-Toxic”. For the same compound, the Activity [22] was “Active”, the Activity [23] was “Active” and the Activity [24] was “Dose-Dependent Effect”. For the same compound, the Activity [25] was “Dose-Dependent Effect”, the Activity [26] was “Active” and the Activity [27] was “Active”. The Activity [28] was “Active”, the Activity [29] was “Active” and the Activity [30] was “Active”. For the same compound, the Activity [31] was “Active”, the Activity [32] was “Active” and the Activity [33] was “Active”. It also gave an inhibition in vivo at 0.6 mg/kg [34] of 66.9%.
Work on Cc1ccc(-n2nc(C(=O)N3CCN(C(=O)c4nc(-c5ccc6c(c5)N(C5CCCC5)[C@H](C)C(=O)N6C)n(-c5ccc(C)cc5)n4)CC3)nc2-c2ccc3c(c2)N(C2CCCC2)[C@H](C)C(=O)N3C)cc1 yielded an IC50 [36] of 6.2 nM, a half-life [1] of 49.2 min and a Tmax [2] of 1 h. The Cmax [3] was 238 ng/mL, the AUC(0-t) [4] was 361 ng·h/mL and the AUC(0-inf) [5] was 372 ng·h/mL. For the same compound, the MRT [6] was 1.69 h.
With Cc1ccc(-n2nc(C(=O)N3C[C@H](C)N(C(=O)c4nc(-c5ccc6c(c5)N(C)[C@H](C)C(=O)N6C)n(-c5ccc(C)cc5)n4)C[C@H]3C)nc2-c2ccc3c(c2)N(C)[C@H](C)C(=O)N3C)cc1 the half-life [13] was 217 min, the half-life [14] was 181 min and the half-life [15] was 110 min. The microsomal CLint [16] was 6.4 µL/min/mg, the microsomal CLint [17] was 7.6 µL/min/mg and the microsomal CLint [18] was 12.6 µL/min/mg.
In the case of Cc1ccc(-n2nc(C(=O)N3CCN(C(=O)c4nc(-c5ccc6c(c5)N(C5CCCC5)[C@H](C)C(=O)N6C)n(-c5ccc(C)cc5)n4)[C@H](C)C3)nc2-c2ccc3c(c2)N(C2CCCC2)[C@H](C)C(=O)N3C)cc1, the half-life [1] is reported as 169 min, the Tmax [2] is reported as 2 h and the Cmax [3] is reported as 823 ng/mL. The AUC(0-t) [4] was 4150 ng·h/mL, the AUC(0-inf) [5] was 4170 ng·h/mL and the MRT [6] was 4.85 h. For the same compound, the “growth inhibition (GI)” value [37] was 78.6% and the Activity [38] was “Toxic”.
